Source: PMC9743148 (Annals of oncology : official journal of the European …, 2020)
Entries after “also recorded” stand apart in the source; their conditions may differ. Read-outs that look alike come from different tables or passages of the source.

Legend:
[1] = system: patients with advanced solid tumors; test: Dose-limiting toxicity, MTD and RP2D determination; type: in vivo, human
[2] = for T1/2 / Tmax: 20 mg q.d.

C=CC(=O)N1CC[C@H](n2nc(C#Cc3cc(OC)cc(OC)c3)c3c(N)ncnc32)C1 [futibatinib]
Dose-limiting toxicities ([1]; 4, 8, 16, or 20 mg q.d.): No DLTs were observed | Recommended phase II dose (RP2D) ([1]; human, in vivo, oral, 21 days): 20 mg q.d. | Dose-limiting toxicities ([1]; other t.i.w. cohorts including 200 mg): no DLTs were reported | Maximum tolerated dose (MTD) ([1]; q.d. schedule): 20 mg q.d. | Maximum tolerated dose (MTD) ([1]; t.i.w. schedule, up to 200 mg): no MTD was defined; also recorded: not defined | Patients with CCA experiencing PR or SD (advanced solid tumors; 18 of 24 patients with cholangiocarcinoma): 75% | Best overall response of confirmed partial response (PR) (advanced solid tumors; across cohorts (n = 86)): five | Responses lasting >6 months (advanced solid tumors; five responders): three | Responses occurring within 3 months of initiating futibatinib (advanced solid tumors; five responders): Four of five | T1/2 ([2]; cycle 1 Day 1, mean): 2.94 h | Tmax ([2]; cycle 1 Day 1, median): 1.92 h | T1/2 ([2]; cycle 1 Day 21, mean): 3.44 h | Tmax ([2]; cycle 1 Day 21, median): 3.52 h | Accumulation with repeated doses ([2]; both schedules): no significant accumulation | Urinary excretion of futibatinib ([2]; urine): lower than 0.01 % of the dose
